# Data taken from patent publication US20230365564A1, “COCRYSTALS OF AN ADENOSINE A2B RECEPTOR ANTAGONIST” (Teon Therapeutics, Inc., priority 2020, published 2023).
# Experiments:
# [1] = Aqueous solubility of compound (1); type: physicochemical; details: aqueous medium; substantially independent of pH over a relevant physiological range
# [2] = Bulk stability (HPLC and XRPD); type: physicochemical
# Method: The bulk stability of the free form and the cocrystals was determined by exposing the compounds to conditions of temperature, humidity and/or radiation flux and evaluating the compound by HPLC and XRPD.
# [3] = Kinetic solubility (solubility-time profile) in biologically relevant fluids; type: physicochemical; details: for solubility: 0.5 h, 2 h and 24 h; for solubility-time profile: 0.5 h to 24 h; for solubility compared with the free form: several biologically relevant media
# Method: The solubility-time profile of free form compound (1) and the three cocrystals was evaluated in different aqueous media.
# (§1) The kinetic solubility experiments were conducted for the free form and the three cocrystals in the following media: (1) pH 1.0 (0.1N) HCl solution, (2) pH 4.5 (50 mM) acetate buffer, (3) pH 6.8 (50 mM) phosphate buffer, (4) FeSSIF-v1 (Fed state stimulated intestinal fluid version 1) (pH 5.0), (5) FaSSIF-v1 (Fasted state stimulated intestinal fluid version 1) (pH 6.5), (6) SGF (Simulated gastric fluid) (pH 2.0), and (7) FaSSIF-v1/4% Soluplus®, and (8) SGF/4% Soluplus®.
# (§2) After combining with the respective media at 37° C., the concentration of the free form or cocrystal and the XRPD was measured at 0.5 hours, 2 hours, and 24 hours.
# [4] = Pharmacokinetics following peroral administration to dogs; parameters: species or system beagle dogs; details: dog, in vivo
# Method: The pharmacokinetics of the fumaric acid cocrystal of Example 4 was evaluated following peroral administration to dogs.
# Male beagle dogs were separated into two groups of three dogs.
# […] The dosing formulation consisted of 0.40 mg/mL of the fumaric acid cocrystal in 4% Soluplus® in simulated gastric fluid (SGF) at pH 2.0, as a homogeneous opaque suspension of fine particles.
# […] The dosing formulation consisted of 2 mg/mL of the fumaric acid cocrystal in 4% Soluplus® in simulated gastric fluid (SGF) at pH 2.0, as a homogeneous opaque suspension of fine particles.
# [5] = XRPD form change after standing in aqueous media at 37° C.; type: physicochemical; details: for form change (XRPD) after equilibrating in the aqueous media: 24 hours at 37° C.
# Method: X-ray powder diffraction (XRPD) was performed using a Bruker D8 Advance® instrument with a Lynxeye® XE T(1D mode) detector at an open angle of 2.94° in continuous scan mode using a Cu/K-α (λ−1.5418 Å) source. The diffraction patterns were obtain over a scan range from 3° to 40° with 0.02° steps, a step duration of 0.12, and a sample rotation speed of 15 rpm.
# as §1, §2
# The XRPD patterns shown in FIGS. 19-23 are associated with the aqueous media described in Table 1 and for the free form (Compound (1), FF), the benzenesulfonic acid cocrystal (BSA CC), the para-toluenesulfonic acid cocrystal (pTSA CC), and the fumaric acid cocrystal (FA CC).
# [6] = Dynamic vapor sorption (DVS) hygroscopicity; type: physicochemical; details: for water absorption (DVS): at 95% RH; for water absorption (DVS) / form change after DVS: 25° C.; for form change after DVS: humidity cycle 40-0-95-0-40% RH
# Method: Dynamic vapor sorption (DVS) was performed using an Advantage instrument at a total gas flow rate of 200 sccm, an oven temperature of 25° C. with water as the solvent. The humidity cycle was 40-0-95-0-40% RH at step intervals of 10% RH with an equilibration of 0.002 dm/dt (%/min), a maximum, dm/dt stability duration of 60 min, and a maximum dm/dt stage time of 360 min.
# [7] = 25° C./60% RH in an open vial, 2 weeks
# [8] = 40° C./75% RH in an open vial, 2 weeks
# [9] = 60° C. in a closed vial, 2 weeks
# [10] = oral, 5 mg/kg, 0.5% methylcellulose
# [11] = pH 1.0 HCl, pH 4.5 acetate, pH 6.8 phosphate, FeSSIF-v1, FaSSIF-v1
# [12] = SGF, FaSSIF-v1/4% Soluplus and SGF/4% Soluplus
# [13] = above 80% RH at 25° C. (then becomes)
# [14] = po, 2 mg/kg peroral, fed male beagle dogs, 4% Soluplus in SGF pH 2.0
# [15] = po, 10 mg/kg peroral, fed male beagle dogs, 4% Soluplus in SGF pH 2.0
Compound,bulk stability ([2]; 1.2 million lux-hrs),"bulk stability [2, 7]","bulk stability [2, 8]","bulk stability [2, 9]","solubility-time profile ([3]; FaSSIF-v1/4% Soluplus, 37° C.)","solubility-time profile ([3]; SGF/4% Soluplus, 37° C.)","form change (XRPD) after equilibrating in the aqueous media [5, 11]","form change after solubility study [5, 12]",water adsorption ([6]; 25° C./80% RH) [wt %],water adsorption ([6]; 25° C./95% RH) [wt %],"hygroscopicity (DVS) [6, 13]",water absorption (DVS) [6] [%],hygroscopicity (DVS) ([6]; below 80% RH at 25° C.),form change after DVS [6],solubility compared with the free form [3],other results
"CCCn1c(=O)c2[nH]c(-c3cnn(Cc4cccc(C(F)(F)F)c4)c3)nc2n(CC)c1=O [Compound (1), 3-Ethyl-1-propyl-8-(1-(3-(trifluoromethyl)benzyl)-1H-pyrazol-4-yl)-3,7-dihydro-1H-purine-2,6-dione]",did not exhibit any significant degradation,did not exhibit any significant degradation,did not exhibit any significant degradation,did not exhibit any significant degradation,increased over time,increased over time,did not show a change in form,no form change,,,,,,,,"solubility [1]: < 1 µg/mL; solubility ([3]; FaSSIF-v1, 37° C.): below the level of quantification (LOQ); solubility ([3]; FeSSIF-v1, 37° C.): below the level of quantification (LOQ); solubility-time profile ([3]; SGF, 37° C.): maintained in the same magnitude; solubility ([3]; pH 1.0 HCl solution, 37° C.): below the level of quantification (LOQ); solubility ([3]; pH 4.5 acetate buffer, 37° C.): below the level of quantification (LOQ); solubility ([3]; pH 6.8 phosphate buffer, 37° C.): below the level of quantification (LOQ); Cmax [4, 10]: 81 ng/mL; Tmax [4, 10]: 2 h; half-life [4, 10]: 63 h; AUC(0-t) ([4]; oral, 5 mg/kg, 0.5% methylcellulose, read-out: AUC0-24): 796 ng·h/mL"
"CCCn1c(=O)c2[nH]c(-c3cnn(Cc4cccc(C(F)(F)F)c4)c3)nc2n(CC)c1=O.O=S(=O)(O)c1ccccc1 [benzenesulfonic acid cocrystal, 3-ethyl-1-propyl-8-(1-(3-(trifluoromethyl)benzyl)-1H-pyrazol-4-yl)-3,7-dihydro-1H-purine-2,6-dione and benzenesulfonic acid]",stable,stable,began to show some disassociation,stable,increased over time,increased over time,completely dissociated to the free form,dissociated to free form,2.2,65,highly hygroscopic,65,only slightly hygroscopic,No form change,higher solubility than the free form,
"CCCn1c(=O)c2[nH]c(-c3cnn(Cc4cccc(C(F)(F)F)c4)c3)nc2n(CC)c1=O.O=C(O)/C=C/C(=O)O [fumaric acid cocrystal, 3-ethyl-1-propyl-8-(1-(3-(trifluoromethyl)benzyl)-1H-pyrazol-4-yl)-3,7-dihydro-1H-purine-2,6-dione and fumaric acid]",did not exhibit any significant degradation,did not exhibit any significant degradation,did not exhibit any significant degradation,did not exhibit any significant degradation,,,,,1.7,4.0,,4,,No form change,higher solubility than the free form,"hygroscopicity (DVS) ([6]; above 90% RH at 25° C. (then becomes)): hygroscopic; hygroscopicity (DVS) ([6]; below 90% RH at 25° C.): slightly hygroscopic; AUC(0-inf) [4, 14]: 2220 ng·h/mL; Cmax [4, 14]: 148 ng/mL; Tmax [4, 14]: 4 h; half-life [4, 14]: 14.8 h; AUC(0-inf) [4, 15]: 21100 ng·h/mL; Cmax [4, 15]: 976 ng/mL; Tmax [4, 15]: 10.7 h; half-life [4, 15]: 6.5 h; form change (XRPD) after equilibrating in the aqueous media ([5]; FaSSIF-v1): only partially dissociated to the free form; form change (XRPD) after equilibrating in the aqueous media ([5]; FeSSIF-v1): only partially dissociated to the free form; form change (XRPD) after equilibrating in the aqueous media ([5]; pH 1.0 HCl solution): did not show any form change; form change (XRPD) after equilibrating in the aqueous media ([5]; pH 4.5 acetate buffer): only partially dissociated to the free form; form change after solubility study ([5]; FaSSIF-v1/4% Soluplus): converted to a mixture of the cocrystal and amorphous state (free form); form change after solubility study ([5]; SGF): dissociated to free form; form change after solubility study ([5]; SGF/4% Soluplus): converted to a mixture of the cocrystal and amorphous state (free form)"
"CCCn1c(=O)c2[nH]c(-c3cnn(Cc4cccc(C(F)(F)F)c4)c3)nc2n(CC)c1=O.Cc1ccc(S(=O)(=O)O)cc1 [para-toluenesulfonic acid cocrystal, 3-ethyl-1-propyl-8-(1-(3-(trifluoromethyl)benzyl)-1H-pyrazol-4-yl)-3,7-dihydro-1H-purine-2,6-dione and para-toluenesulfonic acid]",did not exhibit any significant degradation,did not exhibit any significant degradation,did not exhibit any significant degradation,did not exhibit any significant degradation,first increased and then decreased,first increased and then decreased,completely dissociated to the free form,dissociated to free form,1.1,1.1,slightly hygroscopic,11,only slightly hygroscopic,No form change,higher solubility than the free form,
